Assay results as given in PubChem BioAssay (NCI).
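Values below derive from 48-hour exposures of cells grown in 96-well plates, with endpoints linearly interpolated between the two concentrations bracketing the appropriate inhibition level. Here, GI50 denotes the concentration required for 50% inhibition of growth. TGI marks complete inhibition of growth.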

How the values were obtained:
Test in all cases: inhibition of tumour cell growth, NCI panel, 48 h
HOP-92 NSCLC = tested on: HOP-92 NSCLC
SR leukemia = tested on: SR leukemia
UO-31 renal = tested on: UO-31 renal
RPMI-8226 leukemia = tested on: RPMI-8226 leukemia
LOX IMVI melanoma = tested on: LOX IMVI melanoma
T-47D breast = tested on: T-47D breast
HCT-116 colon = tested on: HCT-116 colon
HCC-2998 colon = tested on: HCC-2998 colon
HL-60(TB) leukemia = tested on: HL-60(TB) leukemia
KM12 colon = tested on: KM12 colon

For `CN(C)c1ccc(/C=N/NC(N)=S)nc1`, the GI50 (HOP-92 NSCLC) was over 100 µM, the TGI (HOP-92 NSCLC) was over 100 µM and the GI50 (SR leukemia) was 2.73 µM. The TGI (SR leukemia) was over 100 µM, the GI50 (UO-31 renal) was 2.34 µM and the TGI (UO-31 renal) was 7.46 µM. The GI50 (RPMI-8226 leukemia) was 3.21 µM, the TGI (RPMI-8226 leukemia) was over 100 µM and the GI50 (LOX IMVI melanoma) was 2.71 µM. The TGI (LOX IMVI melanoma) was over 100 µM, the GI50 (T-47D breast) was 4.32 µM and the TGI (T-47D breast) was over 100 µM. The GI50 (HCT-116 colon) was 3.3 µM, the TGI (HCT-116 colon) was over 100 µM and the GI50 (HCC-2998 colon) was 3.35 µM. It also gave a TGI (HCC-2998 colon) of over 100 µM, a GI50 (HL-60(TB) leukemia) of 1.8 µM and a TGI (HL-60(TB) leukemia) of 37.9 µM. It also gave a GI50 (KM12 colon) of 3.49 µM and a TGI (KM12 colon) of over 100 µM.

In the case of `Cc1c(Cn2c(C)nc3c(C(=O)O)cc(N4CCOCC4)cc32)cccc1C(F)(F)F`, the GI50 (HOP-92 NSCLC) is reported as 14.1 µM, the TGI (HOP-92 NSCLC) is reported as over 100 µM and the GI50 (SR leukemia) is reported as 51.3 µM. For the same molecule, the TGI (SR leukemia) was over 100 µM, the GI50 (UO-31 renal) was 3.46 µM and the TGI (UO-31 renal) was over 67.6 µM. For the same molecule, the GI50 (RPMI-8226 leukemia) was 64.8 µM, the TGI (RPMI-8226 leukemia) was over 100 µM and the GI50 (LOX IMVI melanoma) was 60.7 µM. It also gave a TGI (LOX IMVI melanoma) of over 100 µM, a GI50 (T-47D breast) of 36.7 µM and a TGI (T-47D breast) of over 100 µM. For the same molecule, the GI50 (HCT-116 colon) was 42.1 µM, the TGI (HCT-116 colon) was over 100 µM and the GI50 (HCC-2998 colon) was 72.4 µM. The TGI (HCC-2998 colon) was over 100 µM, the GI50 (HL-60(TB) leukemia) was 72.9 µM and the TGI (HL-60(TB) leukemia) was over 100 µM. The GI50 (KM12 colon) was 56.7 µM and the TGI (KM12 colon) was over 100 µM.

Work on `COC(=O)/C=C1/SC(=Nc2cccc(Cl)c2)N(CCc2c[nH]c3ccc(O)cc23)C1=O` yielded a GI50 (HOP-92 NSCLC) of 2 µM, a TGI (HOP-92 NSCLC) of 4.67 µM and a GI50 (SR leukemia) of 0.522 µM. The TGI (SR leukemia) was 7.13 µM, the GI50 (UO-31 renal) was 1.43 µM and the TGI (UO-31 renal) was 2.88 µM. It also gave a GI50 (RPMI-8226 leukemia) of 1.24 µM, a TGI (RPMI-8226 leukemia) of 3.98 µM and a GI50 (LOX IMVI melanoma) of 1.52 µM. It also gave a TGI (LOX IMVI melanoma) of 2.98 µM, a GI50 (T-47D breast) of 2.03 µM and a TGI (T-47D breast) of 7.15 µM. It also gave a GI50 (HCT-116 colon) of 1.18 µM, a TGI (HCT-116 colon) of 2.71 µM and a GI50 (HCC-2998 colon) of 1.88 µM. The TGI (HCC-2998 colon) was 3.48 µM, the GI50 (HL-60(TB) leukemia) was 1.79 µM and the TGI (HL-60(TB) leukemia) was 6.09 µM. The GI50 (KM12 colon) was 1.53 µM and the TGI (KM12 colon) was 3.29 µM.

`OC1CC2CCC(C1)N2CCCN1c2ccccc2Sc2ccc(Cl)cc21` (stereo not given) showed a TGI (HOP-92 NSCLC) of 9.39 µM, a TGI (SR leukemia) of 5.34 µM and a TGI (UO-31 renal) of 7.09 µM. The TGI (RPMI-8226 leukemia) was 4.42 µM, the TGI (LOX IMVI melanoma) was 3.33 µM and the TGI (T-47D breast) was 5.44 µM. For the same molecule, the TGI (HCT-116 colon) was 3.64 µM, the TGI (HCC-2998 colon) was 0.959 µM and the TGI (HL-60(TB) leukemia) was 6.37 µM. The TGI (KM12 colon) was 4.08 µM.

Molecule `O=C(c1c(F)c(F)c(F)c(F)c1F)c1c(F)c(F)c(F)c(F)c1F` has a TGI (HOP-92 NSCLC) of 3.43 µM, a TGI (SR leukemia) of 1.07 µM and a TGI (UO-31 renal) of 2.64 µM. For the same molecule, the TGI (RPMI-8226 leukemia) was 4.71 µM, the TGI (LOX IMVI melanoma) was 2.19 µM and the TGI (T-47D breast) was over 100 µM. The TGI (HCT-116 colon) was 2.96 µM, the TGI (HCC-2998 colon) was 3.47 µM and the TGI (HL-60(TB) leukemia) was over 100 µM. For the same molecule, the TGI (KM12 colon) was 2.04 µM.

Molecule `CN1C(=O)CCC(N2C(=O)c3cccc(NCCOCCOCCNC(=O)c4cc5c(o4)C(=O)c4ccccc4C5=O)c3C2=O)C1=O` (stereo not given) has a GI50 (HOP-92 NSCLC) of 3.71 µM, a TGI (HOP-92 NSCLC) of 13.6 µM and a GI50 (SR leukemia) of 1.99 µM. The TGI (SR leukemia) was 7.5 µM, the GI50 (UO-31 renal) was 1.59 µM and the TGI (UO-31 renal) was 3.31 µM. It also gave a GI50 (RPMI-8226 leukemia) of 2.32 µM, a TGI (RPMI-8226 leukemia) of 7.06 µM and a GI50 (LOX IMVI melanoma) of 1.11 µM. It also gave a TGI (LOX IMVI melanoma) of 3 µM, a GI50 (T-47D breast) of 2.88 µM and a TGI (T-47D breast) of 10.3 µM. The GI50 (HCT-116 colon) was 2.17 µM, the TGI (HCT-116 colon) was 6.21 µM and the GI50 (HCC-2998 colon) was 1.99 µM. For the same molecule, the TGI (HCC-2998 colon) was 3.96 µM, the GI50 (HL-60(TB) leukemia) was 2.03 µM and the TGI (HL-60(TB) leukemia) was 5.88 µM. It also gave a GI50 (KM12 colon) of 3.35 µM and a TGI (KM12 colon) of 12.6 µM.
